Source: PMC5155146, “Thioredoxin-interacting protein regulates haematopoietic stem cell ageing and rejuvenation by inhibiting p38 kinase activity” (Nature Communications, 2016)

Columns and labels:
TXNIP−/− HSCs = assay: ROS and phospho-p38 of LT-HSCs after NAC treatment in vivo; parameters: species or system mouse; details: 12-month-old TXNIP−/− mice, NAC 100 mg kg−1 i.p., after 12 hours; n=3
Description: Supplementary Figure 2. Expression of p38 and TXNIP in HSCs and their interaction.
(a,b) ROS (a) and phospho- p38 level (b) of LT-HSCs after NAC treatment. We i.p. injected
100 mg kg-1 NAC into mice then anal yzed after 12 hours (n=3 ) . (c) Quantitative real-time
PCR of p38famil y in indicated subsets (n=3). ( d) Western blot anal yses of lin- cells (r epeated
3 times). ( e) Real-time PCR of TXNIP i n LT -HSCs (n=3). ( f) Confocal images of TXNIP in
LT-HSCs (rep eated 3 times). (g) Western blot anal yses of BM cells (rep eated 2 times). ( h,i )
GST pull-down assa y (repeated 3 times). ( j) Constructed p38 mutant clones. ( k) GST pull-
down assays between TXNIP and p38 mutants (repeated 3 times). Data are mean ± s.d.
Statistical significance was determined using a two-tailed Student’s t -tests. **P < 0.01.
matched WT mice (Fig. 1b). To make the data more consistent, the authors should present
their data as percentages of bone marrow cells and absolute number of LT-HSCs, SH-HSCs
Thank you for your valuable comments. We calculated the percentages of bone
marrow cells and absolute number of LT-HSCs, SH-HSCs and MPPs, and presented
the results in our new version Supplementary Fig. 1c,d.
the exhaustion of HSCs in TXNIP-/- mice by high ROS. We have added this text
“Next, we analyzed the frequency of BM cells and absolute number of LT-HSCs,
ST-HSCs and MPPs in each mouse. […]

mice = assay: 5-FU haematopoietic stress in mice; assay type: in vivo, mouse
Description: young TXNIP+/+ or T X N IP -/- mice after 5-FU (150 mg kg-1) administration (n=10). NAC was
i.p. injected 100 m g kg -1 daily starting at da y -1. […] We i.p. injected
5- FU (150 mg kg-1) and NAC (100 mg kg-1) then examined ROS in HSCs after 24 hours
Data are mean ± s.d. Statistical significance was determined using a two-t ailed
Student’s t -tests. *P< 0.05, **P < 0.01, ***P <0.001.

Solubility = assay type: physicochemical; details: authors' statement in response to reviewers
TXNIP-p38 interaction = TXNIP-p38 interaction (immunoprecipitation, in situ PLA, GST pull-down); assay type: cell-based; details: GST pull-down assay in 293T cells
old HSCs = assay: Polar distribution of Cdc42 in LT-HSCs (confocal); assay type: cell-based, mouse; details: sorted LT-HSCs, 10 μM, 16 h in HSC media; 50-60 HSCs scored for Cdc42 polarity; repeated two times
Description: For phosho-p38 and TXNIP analysis using flow cytometry, total BM cells were first stained with surface markers and then fixed and permeabilized with the Cytofix/Perm Solution (BD Biosciences). For TXNIP staining, the cells were blocked with PBS containing 5% BSA for 30 min at RT and then incubated with primary antibody (1:50 dilution) for 1 h in PBS containing 5% BSA, washed three times with PBS and then incubated with a secondary Alexa Fluor 647 (Life technology; 1:1,000 dilution) for 1 h at RT or for phospho-p38 staining, the cells were incubated with anti-phospho-p38-APC (1:40 dilution) at 4 °C for 30 min in PBS containing 2% FBS. For confocal imaging, freshly isolated LT-HSCs were seeded on fibronectin-coated coverslips at 4 °C for 10 min and were immediately fixed. After fixation, cells were permeabilized with 0.2% Triton X-100 for 20 min and blocked with PBS containing 5% BSA for 30 min at RT. Cells were stained primary and secondary antibodies for 1 h at RT and then were mounted with DAPI containing mounting reagent (Molecular Probes). […] After fixation, cells were permeabilized with 0.2% Triton X-100 for 20 min and blocked with PBS containing 5% BSA for 30 min at RT. […] Fifty to sixty individual HSCs were scored for polarity of Cdc42. […]

aged HSCs = assay: Competitive transplantation of treated HSCs; assay type: in vivo, mouse; details: long-term SB203580-administered recipients; n=6-7 from two experiments (Fig. 3d,e)
Description: The repopulation of donor-derived cells was monitored by staining PB from tail vein and BM cells with antibodies against indicated surface markers after 16 weeks.

p38α = assay: In vitro kinase assay for p38 (phospho-ATF2 read-out); assay type: biochemical, human; details: His-p38α, phospho-ATF2 levels; repeated 2 times (Suppl. Fig. 4b)
Description: To examine the kinase activity of p38 in vitro, we used p38 MAP Kinase assay kit (9820, Cell Signaling). We added 0.5–1 μg of His-p38α for kinase assay and its activity was determined by phospho-ATF2 levels. […] FLAG-p38α, β, γ and δ were expressed in 293T cells (ATCC). p38 isoforms were immunoprecipitated with α-FLAG antibody (Sigma; 1:250 dilution) then we performed in vitro kinase assay.

## CC(=O)N[C@@H](CS)C(=O)O [NAC, N-acetyl-L-cysteine]
TXNIP−/− HSCs
  ROS level in HSCs: decreased
  p38 activation in HSCs: decreased
mice; 5-FU 150 mg kg−1 and NAC 100 mg kg−1 i.p., ROS after 24 hours, n=3
  5-FU-induced ROS in HSCs: reversed
mice; young mice, 5-FU 150 mg kg−1, NAC 100 mg kg−1 i.p. daily from day −1, n=10
  rescue of TXNIP−/− mice from 5-FU-induced leucopenia (survival): fully rescued

## C[S+]([O-])c1ccc(-c2nc(-c3ccncc3)c(-c3ccc(F)cc3)[nH]2)cc1 (stereo not shown) [SB203580]
Solubility
  solubility: DMSO soluble
TXNIP-p38 interaction
  p38 interaction ability with TXNIP: did not affect
Old HSCs
  % of polarized cells (Old HSCs): 76.9%
Aged HSCs
  p38 activity and ROS in donor-derived HSCs: maintained low levels of p38 activity and ROS

## YGRKKRRQRRR [TAT]
Old HSCs
  % of polarized cells (Old HSCs): 9.3%

B1: GST-TXNIP-T: GST-fused truncation mutant for TXNIP (150a.a–317a.a) (protein)
chain: DVNTPDLMAPVSAKKEKKVSCMFIPDGRVSVSARIDRKGFCEGDEISIHADFENTCSRIVVPKAAIVARHTYLANGQTKVLTQKLSSVRGNHIISGTCASWRGKSLRVQKIRPSILGCNILRVEYSLLIYVSVPGSKKVILDLPLVIGSRSGLSSRTSSMASRTSSEM
modifications: left off: GST, end not stated, kept
p38α
  p38 kinase activity in vitro: inhibited p38 kinase activity in vitro
